The record followed here is patent EP2276483B1, “SOLID FORMS COMPRISING (+)-2-[1-(3-ETHOXY-4-METHOXYPHENYL)-2-METHYLSULFONYLETHYL]-4-ACETYLAMINOISOINDOLINE-1,3-DIONE, COMPOSITIONS THEREOF, AND USES THEREOF” (CELGENE CORPORATION, priority 2008, dated 2009).

The target in assay [1] is human PDE2 (Homo sapiens, UniProt O00408). As to the kind of experiment: PDE2 enzyme assay. The class given is biochemical.
Assay [2] relates to bovine PDE1. As to the kind of experiment: PDE1 enzyme assay. The class given is biochemical.
Assay [3] has as its system CD11b. The experiment in a line: fMLF-induced CD11b expression on neutrophils. The class given is cell-based. Conditions: Neutrophil; human neutrophils; 30 nM fMLF. The procedure: (§1) CD18/CD11b (Mac-1) expression on neutrophils was measured as previously described (Derian et al., 1995, J. Immunol., 154:308-3 17) with the following modifications. Neutrophils were isolated as described above, then resuspended in complete medium at 1x10^6 cells/ml, pretreated with compounds at 10, 1, 0.1, 0.01, and 0 µM in duplicate at a final DMSO concentration of 0.1% for 10 minutes at 37°C 5%CO2. Cells were then stimulated with 30 nM fMLF for 30 minutes and then chilled to 4°C. Cells were treated with rabbit IgG (Jackson ImmunoResearch Labs, West Grove, PA, USA) (10 µg/1x10^6 cells) to block Fc receptors, stained with CD18-FITC and CD11b-PE (Becton Dickinson), and analyzed by flow cytometry on a FACSCalibur. CD18/CD11b expression (mean fluorescence) in the absence of stimulation was subtracted from all samples to obtain inhibition curves and calculate IC50 values.

Assay [4] has as its system PDE4 (from U937 cells). As to the kind of experiment: PDE4 (U937 cell-derived) enzyme assay. It is filed as biochemical, human. Conditions: 1 µM cAMP. The protocol: PDE4 enzyme was purified from U937 human monocytic cells by gel filtration chromatography as previously described (Muller et al., 1998, Bioorg. & Med. Chem. Lett. 8:2669-2674). Phosphodiesterase reactions were carried out in 50 mM Tris HCl pH 7.5, 5 mM MgCl2, 1 µM cAMP, 10 nM [^3H]-cAMP for 30 min at 30°C, terminated by boiling, treated with 1 mg/ml snake venom, and separated using AG-1XS ion exchange resin (BioRad) as described (Muller et al., 1998, Bioorg. & Med. Chem. Lett. 8:2669-2674). Reactions consumed less than 15% of available substrate. Table 1. PDE Specificity

For assay [5], the system named is neutrophil adhesion to HUVEC. The experiment in a line: fMLF-induced neutrophil adhesion to HUVEC. Conditions: human neutrophils, 500 nM fMLF. It is filed as cell-based. The protocol:
Human umbilical vein endothelial cells (HUVEC) were used as a substrate for neutrophil adhesion as previously described (Derian et al., 1995, J. Immunol., 154:308-317) with the following modifications. HUVEC cells were obtained from Anthrogenesis (Cedar Knolls, NJ, USA), and neutrophils were not treated with cytochalasin B. Cells were treated with compounds at 10, 1, 0.1, 0.01, 0.001, and 0 µM in a final DMSO concentration of 0.1% in duplicate for 10 minutes, stimulated with 500 nM fMLF for 30 minutes, and washed twice with PBS before measuring fluorescence on an FLX800 plate reader (Bio-Tek Instruments, Winooski, VT, USA). Table 2. Assay results

The test system of assay [6] is IL-2. As to the kind of experiment: cells. The class given is cell-based. Conditions: Homo sapiens, PBMC, read-out: IL-2 IC50.
In assay [7] the target is PDE3 from human platelets (Homo sapiens, UniProt Q14432). As to the kind of experiment: PDE3 enzyme assay. The class given is biochemical.
Sequence of PDE3 from human platelets (Q14432 whole entry): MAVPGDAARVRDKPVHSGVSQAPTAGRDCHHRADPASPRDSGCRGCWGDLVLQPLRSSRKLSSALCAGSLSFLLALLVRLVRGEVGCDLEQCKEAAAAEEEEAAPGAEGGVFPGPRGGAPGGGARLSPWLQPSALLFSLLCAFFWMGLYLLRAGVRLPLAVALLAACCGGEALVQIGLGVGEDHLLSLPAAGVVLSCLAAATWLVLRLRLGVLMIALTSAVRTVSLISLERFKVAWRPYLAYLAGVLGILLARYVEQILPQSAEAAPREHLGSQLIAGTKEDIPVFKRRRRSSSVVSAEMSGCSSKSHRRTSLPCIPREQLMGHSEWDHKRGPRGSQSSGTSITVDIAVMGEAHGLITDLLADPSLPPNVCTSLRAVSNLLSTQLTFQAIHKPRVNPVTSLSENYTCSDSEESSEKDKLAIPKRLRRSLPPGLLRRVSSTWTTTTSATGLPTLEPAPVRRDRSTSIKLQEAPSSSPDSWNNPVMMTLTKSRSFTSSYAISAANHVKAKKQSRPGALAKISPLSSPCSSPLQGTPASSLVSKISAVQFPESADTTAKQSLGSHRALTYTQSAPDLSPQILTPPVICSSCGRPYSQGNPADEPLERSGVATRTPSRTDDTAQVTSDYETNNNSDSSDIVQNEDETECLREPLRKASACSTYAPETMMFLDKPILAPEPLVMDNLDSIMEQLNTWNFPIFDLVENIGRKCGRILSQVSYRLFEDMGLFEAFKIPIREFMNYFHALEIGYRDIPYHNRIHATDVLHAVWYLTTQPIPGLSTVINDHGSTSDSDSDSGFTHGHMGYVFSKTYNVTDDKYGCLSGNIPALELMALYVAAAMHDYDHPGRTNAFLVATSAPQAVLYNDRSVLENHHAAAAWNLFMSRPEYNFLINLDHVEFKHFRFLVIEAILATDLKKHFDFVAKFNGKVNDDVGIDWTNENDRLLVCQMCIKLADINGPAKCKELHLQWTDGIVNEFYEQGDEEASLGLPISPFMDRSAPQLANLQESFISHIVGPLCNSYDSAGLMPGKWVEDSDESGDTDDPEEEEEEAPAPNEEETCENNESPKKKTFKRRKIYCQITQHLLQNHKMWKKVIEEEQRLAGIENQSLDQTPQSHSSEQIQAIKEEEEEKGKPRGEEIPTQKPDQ
The subject of assay [8] is cAMP. As to the kind of experiment: PGE2-induced cAMP elevation in human neutrophils. It is filed as cell-based. Conditions: Neutrophil. The protocol:
Prostaglandin E2 (PGE2) binds to prostanoid receptors on monocytes, T cells and other leukocytes and consequently elevates intracellular cAMP levels, resulting in inhibition of cellular responses. The combination of PGE2 and a PDE4 inhibitor synergistically elevates cAMP levels in these cell types, and the elevation of cAMP in PBMC caused by PDE4 inhibitors in the presence of PGE2 is proportional to the inhibitory activity of that PDE4 inhibitor. Intracellular cAMP was measured in human PBMC as follows. PBMC were isolated as described above and plated in 96-well plates at 1 x 10^6 cells per well in RPMI-1640. The cells were pre-treated with compounds at 100, 10, 1, 0.1, 0.01, and 0 µM in a final concentration of 2% DMSO in duplicate at 37°C in a humidified incubator at 5% CO2 for one hour. The cells were then stimulated with PGE2 (10µM) (Sigma) for 1h. The cells were lysed with HCl, 0.1 N final concentration to inhibit phosphodiesterase activity and the plates were frozen at -20°C. The cAMP produced was measured using cAMP (low pH) Immunoassay kit (R&D Systems).
Elevation of cAMP in human neutrophils was measured as follows. PBMC were removed from source leukocytes (Sera-Tec Biologicals) by centrifugation on Ficoll-Paque Plus (Amersham Pharmacia). […]

Assay [9] deals with CD18. The experiment in a line: fMLF-induced CD18 expression on neutrophils. Conditions: Neutrophil; human neutrophils; 30 nM fMLF. The class given is cell-based. The protocol:
as §1

Assay [10] has as its system TNF-α. As to the kind of experiment: IL-1β-induced TNF-α production from human PBMC. It is filed as cell-based. The note with it: 50 ng/ml recombinant human IL-1β. The protocol:
During the course of inflammatory diseases, TNF-α production is often stimulated by the cytokine 1L-1β, rather than by bacterially derived LPS. Compounds were tested for the ability to inhibit IL-1β-induced TNF-α production from human PBMC as described above for LPS-induced TNF-α production, except that the PBMC were isolated from source leukocyte units (Sera-Tec Biologicals, North Brunswick, NJ, USA) by centrifugation on Ficoll-Paque Plus (Amersham Pharmacia, Piscataway, NJ, USA), plated in 96-well tissue culture plates at 3 x 10^5 cells/well in RPMI-1640 medium (BioWhittaker, Walkersville, Maryland, USA) containing 10% heat-inactivated fetal bovine serum (Hyclone), 2 mM L-glutamine, 100 U/ml penicillin, and […] (complete medium), pretreated with compounds at 10, 2, 0.4, 0.08, 0.016, 0.0032, 0.00064, and 0 µM in duplicate at a final DMSO concentration of 0.1% at 37 °C in a humidified incubator at 5% CO2 for one hour, then stimulated with 50 ng/ml recombinant human IL-1β (Endogen) for 18 hours.

Sequence of human PDE2 (O00408 whole entry): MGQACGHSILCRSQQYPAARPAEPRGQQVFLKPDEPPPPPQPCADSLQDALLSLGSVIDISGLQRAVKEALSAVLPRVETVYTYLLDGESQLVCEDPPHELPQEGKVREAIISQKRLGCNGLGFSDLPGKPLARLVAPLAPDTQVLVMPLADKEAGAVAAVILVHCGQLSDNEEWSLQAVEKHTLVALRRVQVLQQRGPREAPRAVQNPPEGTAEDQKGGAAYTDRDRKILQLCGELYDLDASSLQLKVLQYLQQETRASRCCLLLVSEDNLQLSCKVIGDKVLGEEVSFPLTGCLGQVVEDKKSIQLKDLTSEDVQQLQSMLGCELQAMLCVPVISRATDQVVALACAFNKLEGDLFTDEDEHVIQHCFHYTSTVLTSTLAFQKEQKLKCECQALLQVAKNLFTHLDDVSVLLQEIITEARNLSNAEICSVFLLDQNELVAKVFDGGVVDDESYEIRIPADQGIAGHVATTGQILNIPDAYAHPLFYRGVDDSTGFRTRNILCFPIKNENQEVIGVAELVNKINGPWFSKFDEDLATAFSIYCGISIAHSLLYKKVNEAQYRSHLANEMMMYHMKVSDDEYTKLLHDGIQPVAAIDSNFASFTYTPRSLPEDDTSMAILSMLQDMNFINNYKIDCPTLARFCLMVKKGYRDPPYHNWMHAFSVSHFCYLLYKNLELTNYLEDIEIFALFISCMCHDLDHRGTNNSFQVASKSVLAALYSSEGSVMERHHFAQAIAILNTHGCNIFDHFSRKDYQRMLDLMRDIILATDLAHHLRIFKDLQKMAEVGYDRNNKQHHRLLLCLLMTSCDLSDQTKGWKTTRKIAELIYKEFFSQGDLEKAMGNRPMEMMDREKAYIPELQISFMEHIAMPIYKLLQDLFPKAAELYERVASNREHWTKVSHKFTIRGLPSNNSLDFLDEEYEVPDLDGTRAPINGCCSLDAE

`CCOc1cc(C(CS(C)(=O)=O)N2C(=O)c3cccc(NC(C)=O)c3C2=O)ccc1OC` (single isomer, unassigned; (+)) [Compound A, (+)-2-[1-(3-ethoxy-4-methoxyphenyl)-2-methylsulfonylethyl]-4-acetylaminoisoindoline-1,3-dione]: the “PDE Specificity Ratio PDE4/PDE2” value in assay [1] (from above data) is listed as over 10000 fold. Also, the values for the inhibition at 10 µM in [1] (read-out: PDE2(% inhib at 10 µM)) and in assay [7] (read-out: PDE3 (% inhib at 10 µM)) were 6% and 20%, respectively. For the same molecule, the “PDE1 (% inhib at 10 µM)” value in [2] (10 µM) came out at 23%. Also, the “PDE Specificity Ratio PDE4/PDE1” value in assay [2] (from above data) is over 500 fold. Moreover, the IC50 was 74 nM in [3]; 73.5 nM in [4]; 150 nM in [5]; 291 nM in assay [6]; 390 nM in assay [9]; 83 nM in assay [10]. The “PDE Specificity Ratio PDE4/PDE3” value in assay [7] (from above data) is given as over 1200 fold. Besides, in assay [8], the EC50 amounted to 4570 nM.

As a reminder, the IC50 is the concentration needed to halve the response being measured. What is called EC50 is the concentration at which the effect is half-maximal.
